Results on 13 compounds are retold here after US20170000749A1, “Methods for Treating Cognitive Disorders Using Inhibitors of Histone Deacetylase” (Forum Pharmaceuticals, Inc., priority 2008, published 2017).

Each structure is given as a SMILES string. Where two headings read alike, the source gives them in different places.

The test system of assay [1] is Drosophila Huntington's Disease model flies. In words: In Vivo Drosophila Fly Assay for Treatment of Huntington's Disease (automated climbing behavioral assay). Details: species or system Drosophila melanogaster. As to conditions: for Speed 1 to 7 (concentration) 30 uM / Speed 1 to 7 (concentration) 100 uM / Speed 1 to 7 (concentration) 300 uM: effect size of early speed (days 1-7) vs DMSO-carrier control; for Speed 8 to 10 (concentration) 30 uM / Speed 8 to 10 (concentration) 100 uM / Speed 8 to 10 (concentration) 300 uM: effect size of late speed (days 8-10) vs DMSO-carrier control. The source says:
The Drosophila Huntington's Disease assay used to screen compounds of the present disclosure followed that of WO 2007/002497, which is hereby incorporated by reference in its entirety.
Briefly, parental (model and driver) lines are maintained in sufficient quantities to provide virgins and males for assay crosses as well as perpetuating the lines. Disease model flies are maintained with the disease genes “silent”, functionally linked to a UAS enhancer element. The “driver” lines contain a GAL4 element under the control of a tissue-specific promoter. These are crossed together to generate the assay flies which have tissue-specific (i.e. CNS) expression of the disease gene(s).
Weekly assay crosses are set up with sufficient virgins and males to generate enough assay embryos for sorting. Approximately 50,000 males and 75,000 virgins are crossed in population cages. Embryos are collected for an eight hour window two days later. The embryos are then sorted onto 16 mm assay vials containing regular fly media and allowed to develop. Flies containing both the GAL4 driver element and the disease gene(s) are detected by the presence of GFP, a fluorescing protein. Approximately 10 assay flies eclose per vial, the optimal number for the behavioral assay. Once the flies eclose, they are transferred onto assay vials containing liquid Drosophila food. Similarly, control crosses are set up with virgins of the driver and males from a non-disease UAS line. Throughout fly production and the assay days, all flies are maintained at constant temperature and humidity, with preset light cycle, optimized for the particular lines and crosses.
Quality control (QC) for the parental lines is carried out weekly by collecting a sample of random male flies from each line. Single-fly PCR is carried out to ascertain the presence of the GAL4 or UAS element. If greater than 5% of the individuals lack the appropriate element, the assay cross is aborted. A second form of QC is also carried out to ensure that the GAL4 element is able to drive expression of a transgene. A sample of individual “driver” virgins is crossed to UAS-GFP males. Their progeny are visually checked for GFP expression in the appropriate tissues. Lack of GFP in greater than 4% of the crosses results in the assay being aborted.
Test compounds are weighed out and dissolved in DMSO at stock concentrations 100× what is desired in the assay and arrayed into 96-well master plates, including wells for DMSO-only controls and the positive control(s). A single well is reserved for a colored dye used to ensure proper orientation of compounds during drug dispensing and fly transfer. Replicate daughter plates for each day of the assay are stamped out. The plates are bar coded and stored at −20 C until used for the assay.
For a particular assay day, the plates are thawed and a robotic liquid handler is used to dilute the test compound into the liquid fly food and dispense the mixture into the assay vials. For Huntington Disease (HD) models, eight replicates per single treatment (one compound, one concentration) are dispensed. Fresh test compound treated media is made daily during an assay.
On the day the assay flies eclose (emerge from […]; assay Day 0) they are transferred to the test compound treated vials. On assay Day 1, the flies are transferred onto clean test compound treated vials one hour before assay time. They are then placed in the assay machine to acclimate to the appropriate climate conditions.
The assay machine is an environmentally-enclosed and controlled robot that can maintain user-set temperature and humidity. The machine can hold up to sixteen 96-vial racks in four quadrants, for a total of 1536 vials. There are four camera stations, which hold four vials each and a CCD camera for movie capture. […]

The target in assay [2] is one or more of HDAC-1, HDAC-2, HDAC-3, HDAC-4, HDAC-5, HDAC-6, HDAC-7, HDAC-8, HDAC-9, HDAC-10 and HDAC-11. Briefly: Inhibition of Histone Deacetylase Enzymatic Activity (Boc-Lys(Ac)-AMC substrate, Fluor-de-Lys developer). It counts as biochemical. The note with it: read-out: HDAC Inhibition (IC50 μM) HDAC Enzyme. The method, then: The following protocol is used to assay the compounds of the disclosure.
The mixture is pre-incubated for 5 minutes at room temperature. The reaction is started by bringing the temperature to 37° C. and adding 16 μl substrate. Total reaction volume is 50 μl.
In the Tables 8, 9 and 10, A≦0.05 μM; 0.05 μM<B≦0.1 μM; 0.1 μM<C≦1 μM; and 1 μM<D≦10 μM.

The subject of assay [3] is HDAC activity in primary mouse cortical cultures. In words: Whole-Cell Histone Deacetylase (HDAC) Inhibition Assay in Primary Mouse Cortical Cultures. The note with it: whole-cell (WC), mouse cortical neurons, read-out: HDAC Inhibition (IC50 μM) WC mouse cortical neurons. It counts as cell-based. A digest of the protocol:
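Primary neocortical neurons from E17 Balb/C mouse embryos were plated at 50000 cells/well and treated at DIV9 with ten-point DMSO dilutions for 16-18 h at 37° C, in triplicate. BOC-Lys(Ac)-AMC substrate was then added for 1 h. Fluor de Lys developer containing 1 uM TSA produced a fluorophore, which was read.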

For `Cc1cccc(N2CC3CC2CN3c2ncc(C(=O)NO)cn2)c1` (centres unmarked), in assay [1], the “Speed 1 to 7 (concentration) 30 uM” value is 0.493, the “Speed 1 to 7 (concentration) 100 uM” value is listed as 0.588, the “Speed 1 to 7 (concentration) 300 uM” value is reported as 0.412 and the “Speed 8 to 10 (concentration) 30 uM” value is 0.036. Also, in assay [1], the “Speed 8 to 10 (concentration) 100 uM” value is recorded as 0.359 and the “Speed 8 to 10 (concentration) 300 uM” value came to 0.439.
For the compound `O=C(NO)c1cnc(N2CC3CC2CN3c2cccc3nonc23)nc1` (centres unmarked), in assay [1], the “Speed 1 to 7 (concentration) 100 uM” value is 0.84, the “Speed 1 to 7 (concentration) 300 uM” value stood at 0.68, the “Speed 8 to 10 (concentration) 100 uM” value stood at 0.26 and the “Speed 8 to 10 (concentration) 300 uM” value is 0.5.
`Cc1ccc(N2CC3CC2CN3c2ncc(C(=O)NO)cn2)cc1` (centres unmarked): in assay [1], the “Speed 1 to 7 (concentration) 30 uM” value is −0.007, the “Speed 1 to 7 (concentration) 100 uM” value amounted to 0.046, the “Speed 1 to 7 (concentration) 300 uM” value turned out to be 0.829 and the “Speed 8 to 10 (concentration) 30 uM” value is −0.134. Also, in assay [1], the “Speed 8 to 10 (concentration) 100 uM” value was −0.369 and the “Speed 8 to 10 (concentration) 300 uM” value is listed as −0.107.
As for `O=C(NO)c1cnc(N2CC3CC2CN3c2ccc3c(c2)OC(F)(F)O3)nc1` (centres unmarked), in assay [1], the “Speed 1 to 7 (concentration) 30 uM” value is 0.28, the “Speed 1 to 7 (concentration) 100 uM” value worked out at 0.64, the “Speed 1 to 7 (concentration) 300 uM” value was 0.66 and the “Speed 8 to 10 (concentration) 30 uM” value is 0.22. For the same compound, in assay [1], the “Speed 8 to 10 (concentration) 100 uM” value was 0.46 and the “Speed 8 to 10 (concentration) 300 uM” value was 0.58.
With `O=C(NO)c1ccc(C2=Nc3ccccc3Oc3ccc(F)cc32)cc1` [drawing 821], in assay [1], the “Speed 1 to 7 (concentration) 30 uM” value was 0.118, the “Speed 1 to 7 (concentration) 100 uM” value is −0.004, the “Speed 1 to 7 (concentration) 300 uM” value was found to be 0.444 and the “Speed 8 to 10 (concentration) 30 uM” value is −0.108. Moreover, in assay [1], the “Speed 8 to 10 (concentration) 100 uM” value was determined as 0.139 and the “Speed 8 to 10 (concentration) 300 uM” value amounted to 0.47.
Regarding `O=C(NO)c1cnc(N2CC3CC2CN3c2cccc(C(F)(F)F)n2)nc1` (centres unmarked), in assay [1], the “Speed 1 to 7 (concentration) 30 uM” value turned out to be 0.781, the “Speed 1 to 7 (concentration) 100 uM” value is listed as 0.549, the “Speed 1 to 7 (concentration) 300 uM” value was 0.411 and the “Speed 8 to 10 (concentration) 30 uM” value is listed as 0.291. Moreover, in assay [1], the “Speed 8 to 10 (concentration) 100 uM” value was 0.376 and the “Speed 8 to 10 (concentration) 300 uM” value was 0.471.
Turning to `O=C(NO)c1cnc(N2CC3CC2CN3c2cccc(OC(F)(F)F)c2)nc1` (centres unmarked), in assay [1], the “Speed 1 to 7 (concentration) 30 uM” value is 0.05, the “Speed 1 to 7 (concentration) 100 uM” value was −0.01, the “Speed 1 to 7 (concentration) 300 uM” value is reported as 0.68 and the “Speed 8 to 10 (concentration) 30 uM” value is given as 0.15. In assay [1], the “Speed 8 to 10 (concentration) 100 uM” value was 0.16 and the “Speed 8 to 10 (concentration) 300 uM” value stood at 0.35.
As to `O=C(NO)c1cnc(N2CC3CC2CN3c2cccc(C(F)(F)F)c2)nc1` (centres unmarked), in assay [1], the “Speed 1 to 7 (concentration) 30 uM” value was determined as 0.02, the “Speed 1 to 7 (concentration) 100 uM” value is given as 0.48, the “Speed 1 to 7 (concentration) 300 uM” value came to 0.506 and the “Speed 8 to 10 (concentration) 30 uM” value is listed as −0.14. In assay [1], the “Speed 8 to 10 (concentration) 100 uM” value is on record as 0.3 and the “Speed 8 to 10 (concentration) 300 uM” value is on record as −0.112.
For the compound `O=C(NO)c1cnc(N2CC3CC2CN3c2cc(C(F)(F)F)ccn2)nc1` (centres unmarked), in assay [1], the “Speed 1 to 7 (concentration) 30 uM” value turned out to be 0.468, the “Speed 1 to 7 (concentration) 100 uM” value is 0.82, the “Speed 1 to 7 (concentration) 300 uM” value came out at 0.3 and the “Speed 8 to 10 (concentration) 30 uM” value is 0.087. Moreover, in assay [1], the “Speed 8 to 10 (concentration) 100 uM” value is listed as 0.82 and the “Speed 8 to 10 (concentration) 300 uM” value is 0.54.
For `CC(C)OC(=O)N1CC2CC1CN2c1ncc(C(=O)NO)cn1` (centres unmarked), in assay [1], the “Speed 1 to 7 (concentration) 30 uM” value is listed as 0.495, the “Speed 1 to 7 (concentration) 100 uM” value was 0.33, the “Speed 1 to 7 (concentration) 300 uM” value is −0.469 and the “Speed 8 to 10 (concentration) 30 uM” value was 0.338. Moreover, in assay [1], the “Speed 8 to 10 (concentration) 100 uM” value is 0.368 and the “Speed 8 to 10 (concentration) 300 uM” value was found to be 0.512.
As for `O=C(NO)c1cnc(N2CC3CC2CN3c2cccc(SC(F)(F)F)c2)nc1` (centres unmarked), in assay [1], the “Speed 1 to 7 (concentration) 30 uM” value was 0.63, the “Speed 1 to 7 (concentration) 100 uM” value is listed as 0.38, the “Speed 1 to 7 (concentration) 300 uM” value was 0.03 and the “Speed 8 to 10 (concentration) 30 uM” value is given as 0.28. Moreover, in assay [1], the “Speed 8 to 10 (concentration) 100 uM” value is 0.02 and the “Speed 8 to 10 (concentration) 300 uM” value was −0.29.
As for `O=C(NO)c1ccc(OCCN2C(=O)c3ccncc3Oc3ccccc32)cc1`, the IC50 – broadly, the midpoint of a concentration-inhibition curve – in assay [2] (Table 10) was under 0.05 µM; in assay [3] (Table 10) it was under 1 µM.
Turning to `O=C(NO)c1cnc(N2C[C@@H]3C[C@H]2CN3Cc2ccccc2)nc1` [2-((1S,4S)-5-benzyl-2,5-diazabicyclo[2.2.1]heptan-2-yl)-N-hydroxypyrimidine-5-carboxamide], the half-maximal inhibitory concentration (IC50) lay in the range of 0.1 to 1 µM in assay [2] (Table 9) and 1 to 5 µM in assay [3] (Table 9).
